Values of other authors in patent US20220023238A1, “Process of Manufacturing a Stable, Ready to Use Infusion Bag for an Oxidation Sensitive Formulation” (InnoPharma, Inc., priority 2016, published 2022).

What was measured:
[1] = six adult volunteers, intravenous vs oral
[2] = intravenous, therapeutic dosing up to 4,000 mg daily

## CC(=O)Nc1ccc(O)cc1 [acetaminophen, N-(4-hydroxy-phenyl)acetamide]
[1]
  mean intravenous Cmax compared to oral route: two
[2]
  hepatotoxicity: rarely associated with hepatotoxicity
